Test results reported in ChEMBL document CHEMBL3885861, “Open TG-GATES”.

Species on record: Rattus norvegicus
Assay: Open TG-GATES - Regimen: Single
Type: toxicity, organism-based, Sprague-Dawley
Design: regimen Single, gender Male, age 6 weeks
Conditions: in vivo, po, 1 mg/kg, route gavage, dose level Low; for APTT / Bas / Eos / Fbg / Hb / Ht / Lym / MCH / MCHC / MCV / Mono / Neu / PT / Plat / RBC / Ret / WBC: tissue Blood; for KIDNEY_L / KIDNEY_R / KIDNEY_TOTAL: tissue Kidney; for LIVER: tissue Liver; for A/G / ALP / ALT / AST / BUN / CRE / Ca / Cl / DBIL / GLC / IP / K / LDH / Na / PL / RALB / TBIL / TC / TG / TP / gamma-GTP: tissue Plasma

CN1C(C(=O)Nc2ccccn2)=C(O)c2sc(Cl)cc2S1(=O)=O [LORNOXICAM]
TERMINAL_BW (3 h): 222.5 g
APTT (3 h): 19.4 s
Bas (3 h): 0.6%
Eos (3 h): 1%
Fbg (3 h): 219 mg/dL
Hb (3 h): 13.5 g/dL
Ht (3 h): 39.8%
Lym (3 h): 78.2%
MCH (3 h): 21.5 pg
MCHC (3 h): 33.9%
MCV (3 h): 63.4 fL
Mono (3 h): 2.6%
Neu (3 h): 17.4%
PT (3 h): 11.6 s
Plat (3 h): 128.4 x10_4/uL
RBC (3 h): 627.6 x10_4/ul
Ret (3 h): 7%
WBC (3 h): 99.9 x10_2/uL
KIDNEY_L (3 h): 1 g
KIDNEY_R (3 h): 1 g
KIDNEY_TOTAL (3 h): 2 g
LIVER (3 h): 10 g
A/G (3 h): 1.7
ALP (3 h): 878.4 IU/L
ALT (3 h): 40.6 IU/L
AST (3 h): 71.8 IU/L
BUN (3 h): 11 mg/dL
CRE (3 h): 0.3 mg/dL
Ca (3 h): 10.7 mg/dL
Cl (3 h): 102.6 meq/L
DBIL (3 h): 0.072 mg/dL
GLC (3 h): 194.2 mg/dL
IP (3 h): 9.2 mg/dL
K (3 h): 3.7 meq/L
LDH (3 h): 172 IU/L
Na (3 h): 140.4 meq/L
PL (3 h): 149.8 mg/dL
RALB (3 h): 3.5 g/dL
TBIL (3 h): 0.1 mg/dL
TC (3 h): 81.8 mg/dL
TG (3 h): 64.2 mg/dL
TP (3 h): 5.6 g/dL
gamma-GTP (3 h): 1.2 IU/L
TERMINAL_BW (6 h): 223 g
APTT (6 h): 19.9 s
Bas (6 h): 0.8%
Eos (6 h): 1%
Fbg (6 h): 211 mg/dL
Hb (6 h): 13.1 g/dL
Ht (6 h): 38.9%
Lym (6 h): 74.8%
MCH (6 h): 20.8 pg
MCHC (6 h): 33.8%
MCV (6 h): 61.7 fL
Mono (6 h): 3.2%
Neu (6 h): 19.8%
PT (6 h): 12.2 s
Plat (6 h): 126.1 x10_4/uL
RBC (6 h): 629.8 x10_4/ul
Ret (6 h): 6.7%
WBC (6 h): 117.6 x10_2/uL
KIDNEY_L (6 h): 1 g
KIDNEY_R (6 h): 1 g
KIDNEY_TOTAL (6 h): 2 g
LIVER (6 h): 9.3 g
A/G (6 h): 1.7
ALP (6 h): 908.8 IU/L
ALT (6 h): 44.4 IU/L
AST (6 h): 79.6 IU/L
BUN (6 h): 11.2 mg/dL
CRE (6 h): 0.3 mg/dL
Ca (6 h): 10.6 mg/dL
Cl (6 h): 104 meq/L
DBIL (6 h): 0.074 mg/dL
GLC (6 h): 190.2 mg/dL
IP (6 h): 8.6 mg/dL
K (6 h): 4 meq/L
LDH (6 h): 184.8 IU/L
Na (6 h): 140.6 meq/L
PL (6 h): 134.8 mg/dL
RALB (6 h): 3.5 g/dL
TBIL (6 h): 0.1 mg/dL
TC (6 h): 72.2 mg/dL
TG (6 h): 61.8 mg/dL
TP (6 h): 5.5 g/dL
gamma-GTP (6 h): 1.2 IU/L
TERMINAL_BW (9 h): 220.2 g
APTT (9 h): 19.1 s
Bas (9 h): 0.6%
Eos (9 h): 0.8%
Fbg (9 h): 220.4 mg/dL
Hb (9 h): 13.5 g/dL
Ht (9 h): 40.3%
Lym (9 h): 75%
MCH (9 h): 21.2 pg
MCHC (9 h): 33.5%
MCV (9 h): 63.3 fL
Mono (9 h): 3.4%
Neu (9 h): 20.4%
PT (9 h): 12.2 s
Plat (9 h): 119.8 x10_4/uL
RBC (9 h): 636.4 x10_4/ul
Ret (9 h): 7.4%
WBC (9 h): 109.6 x10_2/uL
KIDNEY_L (9 h): 1 g
KIDNEY_R (9 h): 1 g
KIDNEY_TOTAL (9 h): 2 g
LIVER (9 h): 8.9 g
A/G (9 h): 1.6
ALP (9 h): 866.2 IU/L
ALT (9 h): 37.8 IU/L
AST (9 h): 68.6 IU/L
BUN (9 h): 10.6 mg/dL
CRE (9 h): 0.3 mg/dL
Ca (9 h): 10.5 mg/dL
Cl (9 h): 103 meq/L
DBIL (9 h): 0.072 mg/dL
GLC (9 h): 197.8 mg/dL
IP (9 h): 9.1 mg/dL
K (9 h): 4.1 meq/L
LDH (9 h): 158.6 IU/L
Na (9 h): 141 meq/L
PL (9 h): 132.8 mg/dL
RALB (9 h): 3.4 g/dL
TBIL (9 h): 0.1 mg/dL
TC (9 h): 73.2 mg/dL
TG (9 h): 57.8 mg/dL
TP (9 h): 5.5 g/dL
gamma-GTP (9 h): 1.2 IU/L
TERMINAL_BW (24 h): 238.6 g
APTT (24 h): 19.3 s
Bas (24 h): 0.4%
Eos (24 h): 0.8%
Fbg (24 h): 251 mg/dL
Hb (24 h): 13 g/dL
Ht (24 h): 38.9%
Lym (24 h): 69.4%
MCH (24 h): 21.3 pg
MCHC (24 h): 33.4%
MCV (24 h): 63.6 fL
Mono (24 h): 3.2%
Neu (24 h): 26%
PT (24 h): 11.8 s
Plat (24 h): 121.2 x10_4/uL
RBC (24 h): 612.8 x10_4/ul
Ret (24 h): 6.9%
WBC (24 h): 134.5 x10_2/uL
KIDNEY_L (24 h): 1 g
KIDNEY_R (24 h): 1 g
KIDNEY_TOTAL (24 h): 2 g
LIVER (24 h): 11.4 g
A/G (24 h): 1.5
ALP (24 h): 822 IU/L
ALT (24 h): 39.6 IU/L
AST (24 h): 68.8 IU/L
BUN (24 h): 14.8 mg/dL
CRE (24 h): 0.4 mg/dL
Ca (24 h): 10.8 mg/dL
Cl (24 h): 104 meq/L
DBIL (24 h): 0.098 mg/dL
GLC (24 h): 203.6 mg/dL
IP (24 h): 7.6 mg/dL
K (24 h): 4.1 meq/L
LDH (24 h): 190.4 IU/L
Na (24 h): 141 meq/L
PL (24 h): 145.2 mg/dL
RALB (24 h): 3.2 g/dL
TBIL (24 h): 0.2 mg/dL
TC (24 h): 73.8 mg/dL
TG (24 h): 100.2 mg/dL
TP (24 h): 5.4 g/dL
gamma-GTP (24 h): 1.4 IU/L
